This is an account of results in ChEMBL document CHEMBL1127342, “Structure-based design of HIV protease inhibitors: 4-hydroxycoumarins and 4-hydroxy-2-pyrones as non-peptidic inhibitors” (J Med Chem, 1994).

Data set [1] deals with T1, Human immunodeficiency virus type 1 protease (Human immunodeficiency virus 1, UniProt Q72874). Briefly: (§1) Tested for the HIV Protease inhibitory activity of the compound.
Data set [2] deals with T1, Human immunodeficiency virus type 1 protease. The data set is described as §1. The format is functional.
Data set [3] is described as follows: Tested for pharmacokinetic parameter to calculate the total body clearance at a dosage of 12 mg/kg in rat. In kind it is ADME, organism-based. Details: dose 12 mg/kg. Particulars: in vivo, read-out: ClT.
Data set [4] is described as follows: Tested for pharmacokinetic parameter to calculate the total body clearance at a dosage of 2.5 mg/kg in dog. In kind it is ADME, organism-based, Canis lupus familiaris. The arrangement: dose 2.5 mg/kg. Particulars: in vivo, read-out: ClT.
Data set [5] is described as follows: Oral bioavailability in dog. The format is ADME, organism-based, Canis lupus familiaris. To be noted: in vivo.
Data set [6] can be described thus: Oral bioavailability in rat. The format is ADME, organism-based. To be noted: in vivo.
The nature of data set [7]: Tested for pharmacokinetic parameter to calculate the steady-state volume of distributio at a dosage of 12 mg/kg in rat. The format is ADME, organism-based. Details: dose 12 mg/kg. Particulars: in vivo, read-out: Vss.
Data set [8] in a line: Tested for pharmacokinetic parameter to calculate the steady-state volume of distributio at a dosage of 2.5 mg/kg in dog. The arrangement: dose 2.5 mg/kg. Particulars: in vivo, read-out: Vss. The format is ADME, organism-based, Canis lupus familiaris.
Data set [9] in a line: Tested for pharmacokinetic parameter to calculate the half life period at a dosage of 12 mg/kg in rat. The format is ADME, organism-based. The arrangement: dose 12 mg/kg. To be noted: in vivo.
A short description of data set [10]: Tested for pharmacokinetic parameter to calculate the half life period at a dosage of 2.5 mg/kg in dog. Particulars: in vivo. The format is ADME, organism-based, Canis lupus familiaris. The arrangement: dose 2.5 mg/kg.
Data set [11] addresses Cathepsin D (Homo sapiens) (UniProt P07339). The experiment in a line: Tested for the inhibitory activity against human aspartyl protease, cathepsin D at 10 uM concentration.
For data set [12], the target named is T2, Cathepsin E (Homo sapiens) (UniProt P14091).
T2 sequence (whole entry): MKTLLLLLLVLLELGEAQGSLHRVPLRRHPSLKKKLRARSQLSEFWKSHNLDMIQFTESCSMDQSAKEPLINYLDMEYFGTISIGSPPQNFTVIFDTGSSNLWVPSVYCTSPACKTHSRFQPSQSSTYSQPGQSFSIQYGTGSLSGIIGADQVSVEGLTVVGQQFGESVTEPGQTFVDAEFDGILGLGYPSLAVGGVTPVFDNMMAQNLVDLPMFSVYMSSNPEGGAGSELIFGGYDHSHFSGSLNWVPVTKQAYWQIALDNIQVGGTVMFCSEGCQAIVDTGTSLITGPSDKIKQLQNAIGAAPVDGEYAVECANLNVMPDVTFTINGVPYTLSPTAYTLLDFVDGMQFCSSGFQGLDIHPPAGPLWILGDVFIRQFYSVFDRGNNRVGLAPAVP
Briefly: Tested for the inhibitory activity against human aspartyl protease, cathepsin E at 10 uM concentration.

In data set [13] the test system is H9. Briefly: Tested for the antiviral activity against HIV-1 IIIB-infected H9 cells. The format is functional. To be noted: Homo sapiens, read-out: ED50 (the source's name).
In data set [14] the test system is MT4. Briefly: Tested for the antiviral activity against HIV-1 IIIB-infected MT-4. In kind it is functional. To be noted: Homo sapiens, read-out: ED50 (the source's name).
Data set [15] addresses Pepsin A (Homo sapiens) (UniProt P0DJD9). Briefly: Inhibitory activity against human aspartyl protease, pepsin at 10 uM.
Data set [16] concerns the target T1, Human immunodeficiency virus type 1 protease. Briefly: Tested for the binding affinity against HIV-1 Protease.
Data set [17] deals with T3, Renin (Homo sapiens) (UniProt P00797).
T3 sequence (whole entry): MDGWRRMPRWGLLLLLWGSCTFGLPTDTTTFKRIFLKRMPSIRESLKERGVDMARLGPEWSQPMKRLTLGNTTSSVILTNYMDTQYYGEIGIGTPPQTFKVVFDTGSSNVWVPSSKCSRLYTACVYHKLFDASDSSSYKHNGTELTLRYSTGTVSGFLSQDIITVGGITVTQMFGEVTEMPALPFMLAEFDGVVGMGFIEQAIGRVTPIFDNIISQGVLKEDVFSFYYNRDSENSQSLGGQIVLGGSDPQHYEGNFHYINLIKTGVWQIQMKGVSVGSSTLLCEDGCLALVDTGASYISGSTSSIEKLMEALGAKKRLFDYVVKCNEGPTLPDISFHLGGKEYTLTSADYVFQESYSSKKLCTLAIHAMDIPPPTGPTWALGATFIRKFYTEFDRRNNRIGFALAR
The experiment in a line: Tested for the inhibitory activity against human aspartyl protease, renin at 10 uM concentration.

A short description of data set [18]: Tested for antiviral activity against clinical isolates such as AZT resistant strain. Particulars: read-out: ED50 (the source's name). In kind it is functional.
For data set [19], the target named is Human immunodeficiency virus type 1 protease (Human immunodeficiency virus 1) (UniProt Q72874). Briefly: Tested for the activity against HIV protease.
Data set [20] concerns the target Gastricsin (Homo sapiens) (UniProt P20142). Briefly: Tested for the inhibitory activity against human aspartyl protease gastricsin at 10 uM concentration.
Data set [21] is described as follows: Tested for antiviral activity in HIV-1 infected PBMC; 100-300. The format is functional. To be noted: Human immunodeficiency virus 1; read-out: ED50 (the source's name).

Molecules are shown by their SMILES.

Pepsin A (Homo sapiens), sequence (P0DJD9 63-388 limits assumed): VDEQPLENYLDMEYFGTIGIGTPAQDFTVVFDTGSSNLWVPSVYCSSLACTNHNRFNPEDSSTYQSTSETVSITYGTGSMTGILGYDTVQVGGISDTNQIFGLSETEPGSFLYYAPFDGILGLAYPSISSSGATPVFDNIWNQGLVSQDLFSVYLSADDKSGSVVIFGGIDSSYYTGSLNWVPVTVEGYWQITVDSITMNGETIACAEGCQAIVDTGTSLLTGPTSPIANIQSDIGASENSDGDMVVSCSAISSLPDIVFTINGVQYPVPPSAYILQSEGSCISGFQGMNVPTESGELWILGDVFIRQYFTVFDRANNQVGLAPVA
Gastricsin (Homo sapiens), sequence (P20142 whole entry, looked up): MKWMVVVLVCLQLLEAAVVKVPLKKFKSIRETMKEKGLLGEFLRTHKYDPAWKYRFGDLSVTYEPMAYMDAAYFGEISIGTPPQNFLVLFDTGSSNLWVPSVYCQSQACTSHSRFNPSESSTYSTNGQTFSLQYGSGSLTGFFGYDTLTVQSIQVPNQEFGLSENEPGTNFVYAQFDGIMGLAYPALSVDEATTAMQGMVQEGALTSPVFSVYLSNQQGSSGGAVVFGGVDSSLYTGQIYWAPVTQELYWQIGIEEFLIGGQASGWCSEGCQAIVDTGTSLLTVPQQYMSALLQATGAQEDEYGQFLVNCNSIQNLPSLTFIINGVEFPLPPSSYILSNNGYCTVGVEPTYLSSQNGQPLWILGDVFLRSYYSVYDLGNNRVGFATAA
Cathepsin D (Homo sapiens), sequence (P07339 65-162 limits assumed): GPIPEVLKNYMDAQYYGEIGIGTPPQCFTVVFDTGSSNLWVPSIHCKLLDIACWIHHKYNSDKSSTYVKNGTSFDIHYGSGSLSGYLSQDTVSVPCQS
Cathepsin D (Homo sapiens), sequence (P07339 169-412 limits assumed): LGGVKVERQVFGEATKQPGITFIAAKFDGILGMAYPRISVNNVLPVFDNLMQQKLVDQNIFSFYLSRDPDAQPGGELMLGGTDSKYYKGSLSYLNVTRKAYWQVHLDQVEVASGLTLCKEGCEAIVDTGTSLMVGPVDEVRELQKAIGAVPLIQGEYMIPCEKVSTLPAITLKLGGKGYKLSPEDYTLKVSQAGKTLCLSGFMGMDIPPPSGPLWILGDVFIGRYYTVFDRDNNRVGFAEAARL

For `CCC(c1ccccc1)c1c(O)cc(CCc2ccccc2)oc1=O` (configuration not stated), in data set [1], the Ki (in general, a dissociation constant, usually derived from enzyme kinetics or from competition with a known ligand) was 500 nM.

On to `CC(=O)CC(c1ccccc1)c1c(O)c2ccccc2oc1=O` (configuration not stated) [WARFARIN], for which the IC50 (usually the concentration needed to halve the response being measured) in data set [2] is ~30000 nM.

In the case of `CCC(Cc1ccccc1)c1cc(O)c(C(CC)c2ccccc2)c(=O)o1` (configuration not stated), the clearance is 0.8 mL/min/kg in data set [3] and 0.7 mL/min/kg in data set [4]. Further, the bioavailability (commonly dose-corrected exposure relative to a reference, in per cent) in [5] worked out at 45%; in data set [6] it was 76%. For the same compound, the Vd was 0.1 L/kg in data set [7] and 0.26 L/kg in data set [8]. In addition, the half-life (usually the time in which the quantity being followed falls by half) was 4 h in data set [9] and 6 h in data set [10]. Further, the inhibition (in general, the share of the control response that was lost under treatment) turned out to be 52% in data set [11]; 72% in data set [12]; 53% in data set [15]; 0% in [17]; 0% in data set [20]. The EC50 is 3000 nM in data set [13], 3000 nM in data set [14] and 4000 nM in data set [18]. The compound also gave an inhibition constant (Ki) in data set [16] of 38 nM. Besides, the TCID50 in [19] was 20 µM.

Regarding `CCC(c1ccccc1)c1c(O)c2ccccc2oc1=O` (configuration not stated) [PHENPROCOUMON], the EC50 in data set [21] came out at 300000 nM. The Ki in [1] is 1000 nM.
